Experimental data reported in patent publication US11274332B2, “Methods of administering 3,4-diaminopyridine” (SERB SA, priority 2011, dated 2022).

Biological target: T1, cloned human Kv1.2 potassium channel (Homo sapiens, UniProt P16389)
T1 construct: expressed in transfected cells
Experiment: PatchXpress inhibition of cloned human Kv1.2 in HEK293 cells (Example 6)
Format: cell-based
Settings: hKv1.2, up to 3000 μM
Source text: The objective of this study was to examine the in vitro effects and determine the […] of 3,4-DAP phosphate and the metabolite N-(4-aminopyridin-3-yl) acetamide HCl on the following ion channels: cloned human Kv1.1 potassium channel (encoded by the human KCNA1 gene, expressed in HEK293 cells), cloned human Kv1.2 potassium channel (encoded by the human KCNA2 gene, expressed in HEK293 cells), cloned human Kv1.3 potassium channel (encoded by the human KCNA3 gene, expressed in CHO cells), cloned human Kv1.4 potassium channel (encoded by the human KCNA4 gene, expressed in HEK293 cells), cloned human Kv1.5 potassium channel (encoded by the human KCNA5 gene and expressed in CHO cells), responsible for IKur, ultra-rapid delayed rectifier potassium current.
Chemicals used in solution preparation were purchased from Sigma-Aldrich (St. Louis, Mo.), unless otherwise noted, and were of ACS reagent grade purity or higher. Stock solutions of each test article (100 mM, 30 mM and 1.00 mM 3,4-DAP phosphate and 100 mM N-(4-aminopyridin-3-yl)acetamide) were prepared in sterile water and stored refrigerated. […]
In preparation for a recording session, intracellular solution was loaded into the intracellular compartments of the Sealchip16. […] After establishment of a whole-cell configuration, membrane currents were recorded using dual-channel patch clamp amplifiers in the PatchXpress®. […]

T1 sequence (P16389 whole entry): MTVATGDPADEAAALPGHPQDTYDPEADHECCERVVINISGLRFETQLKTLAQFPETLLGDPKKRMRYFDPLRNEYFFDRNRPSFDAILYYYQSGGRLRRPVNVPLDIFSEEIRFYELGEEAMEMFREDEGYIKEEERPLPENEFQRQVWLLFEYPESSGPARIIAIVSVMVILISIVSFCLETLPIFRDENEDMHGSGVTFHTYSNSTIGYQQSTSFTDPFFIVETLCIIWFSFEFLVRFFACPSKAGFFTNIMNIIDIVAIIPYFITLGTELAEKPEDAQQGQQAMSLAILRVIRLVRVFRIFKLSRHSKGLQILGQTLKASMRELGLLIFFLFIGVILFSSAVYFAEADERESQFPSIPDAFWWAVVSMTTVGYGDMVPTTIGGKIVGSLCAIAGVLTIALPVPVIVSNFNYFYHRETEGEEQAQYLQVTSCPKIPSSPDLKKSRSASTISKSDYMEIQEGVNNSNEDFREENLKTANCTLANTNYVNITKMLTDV

activity on K+ channel: inactive
activity on K+ channel (listed as N-acetyl metabolite): not active
Compound: CC(=O)Nc1cnccc1N [3-N-acetyl amifampridine, N-(4-aminopyridin-3-yl)acetamide]
